Usually pIC50 stands for the negative decadic logarithm of the IC50, by convention in mol/L. Read a low pIC50 as a large IC50. By MIC is commonly meant the smallest concentration in the dilution series that meets the test's criterion for growth inhibition.

Test [1] addresses Escherichia coli LpxH (UDP-2,3-diacylglucosamine hydrolase) (Escherichia coli (strain K12), UniProt P43341). Nature of the test: 50% Inhibitory Concentration (IC50) to LpxH, UMP/CMP-Glo Glycosyltransferase Assay kit. Type of test: biochemical. The procedure: Example 121: 50% Inhibitory Concentration (IC50) to UDP-2,3-diacylglucosamine hydrolase (LpxH)
The inhibitory potency of molecules to UDP-2,3-diacylglucosamine hydrolase (LpxH) was determined using the UMP/CMP-Glo™ Glycosyltransferase Assay kit. LpxH hydrolyzes the pyrophosphate bond of UDP-2,3-diacylglucosamine (UDP-DAG) to yield 2,3-diacylglucosamine 1-phosphate (lipid X) and UMP. The assay kit could quantify the UMP production by convert the UMP to ATP and generate light in a luciferase reaction. The compound's effect on the LpxH activity is detected by measuring the light using a luminometer (Envision).

A further test concerns E. coli (ATCC 25922). The experiment in a line: Minimal Inhibitory Concentration (MIC) assay, E. coli. It is filed as cell-based. Conditions: Escherichia coli, ATCC25922; E. coli ATCC 25922, CAMHB, 20 hours at 35° C.; read-out: MIC E. coli ATCC 25922. An outline of the steps:
(§1)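 Broth microdilution in cation-adjusted Mueller Hinton broth, inoculum 5×10^5 CFU/mL, compounds 2-fold serially diluted from 10 mM DMSO stocks. Plates incubated 20 hours at 35° C in ambient air; MIC (μg/mL) is the lowest concentration preventing visible growth.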

Test [2] deals with K. pneumonia (ATCC 43816). Nature of the test: Minimal Inhibitory Concentration (MIC) assay, K. pneumonia. Conditions: Klebsiella pneumoniae; K. pneumoniae ATCC43816, CAMHB, 20 hours at 35° C.; read-out: MIC K. pneumoniae ATCC43816. Type of test: cell-based. An outline of the steps: as §1

pIC50: −log10 of the molar value. Converted amounts (≈) assume the structure as drawn.

Chain of Escherichia coli LpxH (UDP-2,3-diacylglucosamine hydrolase) (P43341 whole entry): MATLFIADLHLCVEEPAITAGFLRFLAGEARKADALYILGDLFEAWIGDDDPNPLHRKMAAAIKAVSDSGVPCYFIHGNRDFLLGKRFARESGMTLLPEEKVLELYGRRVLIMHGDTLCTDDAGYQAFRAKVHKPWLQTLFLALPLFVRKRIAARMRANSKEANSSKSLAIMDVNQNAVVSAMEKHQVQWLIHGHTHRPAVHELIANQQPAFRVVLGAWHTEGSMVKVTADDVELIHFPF

Turning to `O=C1CC(N2CC3(CNC3)C2)CN1c1ccc(S(=O)(=O)N2CCN(c3cc(C(F)(F)F)cc(Cl)n3)CC2)cc1` (stereo not drawn) [Example 52, 1-[4-[4-[6-Chloro-4-(trifluoromethyl)-2-pyridyl]piperazin-1-yl]sulfonylphenyl]-4-(2,6-diazaspiro[3.3]heptan-2-yl)pyrrolidin-2-one], in test [1], the negative-log IC50 (pIC50) was 7.47. Besides, the MIC (with E. coli (ATCC 25922); in test [2]) was 17.5 mg/L (≈ 29.9 µM) each time.

With `NC1CC(=O)N(c2ccc(S(=O)(=O)N3CCN(c4cc(C(F)(F)C5CC6CCC(C5)O6)cc(Cl)n4)CC3)cc2)C1` (stereo not drawn) [Example 100, 4-Amino-1-[4-[4-[6-chloro-4-[difluoro(8-oxabicyclo[3.2.1]octan-3-yl)methyl]-2-pyridyl]piperazin-1-yl]sulfonylphenyl]pyrrolidin-2-one], in test [1], the negative logarithm of the IC50 (pIC50) was > 8.47. In addition, the MIC in the test on E. coli (ATCC 25922) came out at 1.86 mg/L (≈ 3.12 µM); in test [2], 0.93 mg/L (≈ 1.56 µM).

Consider `O=C1OC2C(O)C(CO)OC2N1c1ccc(S(=O)(=O)N2CCN(c3cc(C(F)(F)F)cc(Cl)n3)CC2)cc1` (stereo not drawn) [Example 21, 3-[4-[4-[6-Chloro-4-(trifluoromethyl)-2-pyridyl]piperazin-1-yl]sulfonylphenyl]-6-hydroxy-5-(hydroxymethyl)-3a,5,6,6a-tetrahydrofuro[2,3-d]oxazol-2-one], for which, in test [1], the pIC50 is 7.98. The MIC in the test on E. coli (ATCC 25922) stood at 0.91 mg/L (≈ 1.57 µM); in test [2], 1.81 mg/L (≈ 3.13 µM).

Take `O=C1CC(N2C[C@@H](O)[C@@H](O)C2)CN1c1ccc(S(=O)(=O)N2CCN(c3cc(C(F)(F)F)cc(Cl)n3)CC2)cc1` (stereo partly drawn) [Example 48, 1-[4-[4-[6-Chloro-4-(trifluoromethyl)-2-pyridyl]piperazin-1-yl]sulfonylphenyl]-4-[(3S,4R)-3,4-dihydroxypyrrolidin-1-yl]pyrrolidin-2-one]: the pIC50 in test [1] is 8.17. For the same compound, the figures for the MIC (with E. coli (ATCC 25922); in test [2]) were 1.84 mg/L (≈ 3.12 µM) and 3.69 mg/L (≈ 6.25 µM), respectively.

With `O=C1CC(NC2CCNCC2)CN1c1ccc(S(=O)(=O)N2CCN(c3cc(C(F)(F)F)cc(Cl)n3)CC2)cc1` (stereo not drawn) [Example 60, 1-[4-[4-[6-Chloro-4-(trifluoromethyl)-2-pyridyl]piperazin-1-yl]sulfonylphenyl]-4-(4-piperidylamino)pyrrolidin-2-one], the pIC50 in test [1] was 8.07. The MIC is 1.95 mg/L (≈ 3.32 µM) in the test on E. coli (ATCC 25922) and 3.9 mg/L (≈ 6.64 µM) in test [2].

In test [1], `N[C@H]1CN(c2ccc(S(=O)(=O)N3CCN(c4cc(C(F)(F)F)cc(Cl)n4)CC3)cc2)C1=O` [Example 7, (3S)-3-amino-1-[4-[4-[6-chloro-4-(trifluoromethyl)-2-pyridyl]piperazin-1-yl]sulfonylphenyl]azetidin-2-one] showed a pIC50 of 7.20. The MIC was found to be 3.78 mg/L (≈ 7.72 µM) in the test with E. coli (ATCC 25922) and 5.66 mg/L (≈ 11.6 µM) in test [2].

With `NC1CC(=O)N(c2ccc(S(=O)(=O)N3CCN(c4cc(C(F)(F)c5ccccn5)cc(Cl)n4)CC3)cc2)C1` (stereo not drawn) [Example 89, 4-Amino-1-[4-[4-[6-chloro-4-[difluoro(2-pyridyl)methyl]-2-pyridyl]piperazin-1-yl]sulfonylphenyl] pyrrolidin-2-one], the pIC50 in test [1] is 7.22. The MIC (with E. coli (ATCC 25922); in test [2]) was 0.88 mg/L (≈ 1.56 µM) in each case.

Take `NCC1CN(CC2CC(=O)N(c3ccc(S(=O)(=O)N4CCN(c5cc(C(F)(F)F)cc(Cl)n5)CC4)cc3)C2)C1` (stereo not drawn) [Example 35, 4-[[3-(Aminomethyl)azetidin-1-yl]methyl]-1-[4-[4-[6-chloro-4-(trifluoromethyl)-2-pyridyl]piperazin-1-yl]sulfonylphenyl]pyrrolidin-2-one]: the pIC50 in test [1] is > 8.47. For the same compound, the MIC in the test on E. coli (ATCC 25922) turned out to be 0.64 mg/L (≈ 1.09 µM); in test [2], 1.27 mg/L (≈ 2.16 µM).

The compound `NC1CC(=O)N(c2ccc(S(=O)(=O)N3CCN(c4cc(C(F)(F)c5ccncc5)cc(Cl)n4)CC3)cc2)C1` (stereo not drawn) [Example 91, 4-Amino-1-[4-[4-[6-chloro-4-[difluoro(4-pyridyl)methyl]-2-pyridyl]piperazin-1-yl]sulfonylphenyl]pyrrolidin-2-one] gave a negative logarithm of the IC50 (pIC50) in test [1] of 7.97. Further, the MIC (in the test with E. coli (ATCC 25922); in test [2]) was 1.76 mg/L (≈ 3.13 µM) in each case.

(Values after patent US20250011300A1, “PIPERAZINYLSULFONYLARYL COMPOUNDS FOR TREATMENT OF BACTERIAL INFECTIONS” (Hoffmann-La Roche Inc., priority 2021, published 2025).)
